In patent publication US11434205B2, “Substituted imidazole carboxylate derivatives and the use thereof” (priority 2018, dated 2022):
Read-outs that look alike come from different tables or passages of the source.

Columns and labels:
[1] = tested on: secretion of corticosterone, H295R cell line; test: cells; format: cell-based; conditions: for EC50: read-out: EC50 (Corticosterone)
Protocol: (§1) The Effects of the Compounds on Adrenocortical Function In Vitro Test
(§2) Then secretion of the cortisol and corticosterone in the supernatant, was measured using HPLC-MS/MS method to determine whether the compounds of the present invention had adrenotoxic potential.

[2] = tested on: secretion of cortisol, H295R cell line; test: cells; format: cell-based; conditions: for EC50: read-out: EC50 (Cortisol)
Protocol: as §1, §2

11-β-hydroxylase = target: T1, 11-β-hydroxylase (Rattus norvegicus, UniProt P15393); conditions: compared with etomidate; cited from earlier work
T1 sequence (P15393 25-499): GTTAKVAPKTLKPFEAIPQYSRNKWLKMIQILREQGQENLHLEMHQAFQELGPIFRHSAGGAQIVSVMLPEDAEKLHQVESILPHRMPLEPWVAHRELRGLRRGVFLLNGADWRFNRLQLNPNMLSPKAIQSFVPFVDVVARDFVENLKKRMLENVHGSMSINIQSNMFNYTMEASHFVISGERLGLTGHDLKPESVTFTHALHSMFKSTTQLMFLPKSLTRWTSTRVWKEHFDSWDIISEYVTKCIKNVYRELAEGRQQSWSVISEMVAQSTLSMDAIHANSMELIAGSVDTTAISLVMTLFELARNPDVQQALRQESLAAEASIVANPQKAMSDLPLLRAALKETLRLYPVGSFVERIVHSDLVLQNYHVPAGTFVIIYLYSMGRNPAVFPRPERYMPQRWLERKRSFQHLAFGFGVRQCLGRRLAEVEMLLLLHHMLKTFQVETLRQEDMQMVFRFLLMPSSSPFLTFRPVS

rats [3] = test: Loss of righting reflexes (LORR) assay in rats, ED50 by up and down method; format: in vivo, rat; conditions: tail vein, class symbols; for ED50: Rattus norvegicus
Method in brief: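 Adult male Sprague-Dawley rats (250-300 g) dosed i.v. via tail vein at 0.1 mL/s. Anesthesia scored as loss of righting reflex lasting >30 s; ED50 derived by up-and-down method.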

rats [4] = tested on: rats
Protocol: Adult male Sprague-Dawley rats (250-300 g) were selected for the experiment. […] The anesthesia effects of the compounds were assessed in rats using a LORR assay and a period >30 s was considered as an indicator of general anesthesia. Then the up and down method was used to determine 50% effective dose (ED50). The drugs were administered through the tail vein of rats in a volume of 0.6 mL and at a rate of 0.1 mL/s.

rats [5] = test: Pharmacological characteristics at equivalent doses (2×ED50) in rats; conditions: 2×ED50, tail vein; for Adverse reactions: Red urine (incidence): DMSO solution (DMSO alone 10/10); for Onset time: time of LORR
Method in brief: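 Adult male Sprague-Dawley rats (250-300 g, n=8) received each drug at twice its ED50 via tail vein (0.6 mL at 0.1 mL/s). Onset of anesthesia taken as time to LORR.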

rats [6] = format: in vivo, rat; conditions: rats of the MAP/HR figures, 2×ED50, tail vein; same value in min
Method in brief: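 Rats implanted with telemetry (left ventricular and abdominal aortic catheters, ECG leads) at least one week before recording; compounds given via lateral tail-vein catheter. MAP and HR sampled every 15 s for 30 min before and after dosing to judge hemodynamic stability.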

rats [7] = conditions: for Adverse reactions: Tremor (incidence): continuous infusion 2×MIR
Protocol: Pharmacological Effects of the Compounds on Continuous Infusion in Rats
Adult male Sprague-Dawley rats with body weight ranging from 250 to 300 gm were selected for continuous infusion test. […] Time to recovery of righting reflex from stopping infusion, and time to fully awake from stopping infusion were recorded.

rats [8] = format: in vivo, rat; conditions: rats of the MAP/HR figures, 2×ED50, tail vein
[9] = H295R cell line, 0.1-10000 nM, HPLC-MS/MS, Table D3
[10] = H295R cell line, 0.1-10000 nM, HPLC-MS/MS, Table E3
[11] = H295R, 0.1-10000 nM, HPLC-MS/MS
[12] = emulsion, continuous infusion at 2×MIR
[13] = continuous tail vein infusion at 2×MIR, LORR maintained 1 hour, Table D4
[14] = continuous tail vein infusion at 2×MIR, LORR maintained 1 hour, Table E4

Compound | Corticosterone as an indicator to determine the presence of inhibition [1, 9] | Corticosterone as an indicator to determine the presence of inhibition [1, 10] | Corticosterone as an indicator to determine the presence of inhibition ([1]; H295R, Table A3) | Cortisol as an indicator to determine the presence of inhibition [2, 9] | Cortisol as an indicator to determine the presence of inhibition [2, 10] | Cortisol as an indicator to determine the presence of inhibition ([2]; H295R, Table A3) | ED50 (rats [3]) [mg/kg] | Approximate therapeutic index (rats [4]) | Minimal lethal dose (rats [4]) [mg/kg] | Righting reflex duration (rats [5]) [min] | Adverse reactions: Red urine (incidence) (rats [5]) | Onset time (rats [5]) [min] | EC50 ([2]; Homo sapiens, NCI-H295R) [µM] | recovery time of the test animals' righting reflex (rats [6]) [min] | recovery time of the test animals' righting reflex (rats [8]) [s] | EC50 ([1]; Homo sapiens, NCI-H295R) [µM] | other results
C[C@H](c1ccccc1)n1cncc1C(=O)O [Etomidate acid, etomidate acid, reference compound] | 0 | 0 | 0 | 0 | 0 | 0 | – | – | – | – | – | – | – | – | – | – | EC50 [1, 9]: > 10 µM; EC50 [1, 10]: > 10 µM; EC50 [1, 11]: > 10 µM; Corticosterone as an indicator to determine the presence of inhibition ([1]; H295R, Table B3): 0; Corticosterone as an indicator to determine the presence of inhibition ([1]; H295R, Table C3): 0; EC50 [2, 9]: > 10 µM; EC50 [2, 10]: > 10 µM; EC50 [2, 11]: > 10 µM; Cortisol as an indicator to determine the presence of inhibition ([2]; H295R, Table B3): 0; Cortisol as an indicator to determine the presence of inhibition ([2]; H295R, Table C3): 0; inhibitory effect on 11-β-hydroxylase (11-β-hydroxylase): little inhibitory effect
C[C@H](c1ccccc1)n1cncc1C(=O)OCC1CC(F)(F)C1 [Compound A12] | – | – | 0 | – | – | 0 | 0.5 to 1 | >16 | >10 | 4.04 ± 1.65 | (8/8) | 0.16 ± 0.06 | > 1 | 4.23 | 254 | – | Adverse reactions: Restlessness (incidence) (rats [5]): Restlessness (2/8), Red urine; Recovery time after stopping infusion (rats [7]; after 1 hour infusion at 2×MIR): 13 to 16 min; Adverse reactions: Tremor (incidence) (rats [7]): Tremor (4/6); Onset time (rats [7]; [12]): 3 to 4 min
C=C=CC1(OC(=O)c2cncn2[C@H](C)c2ccccc2)CCCCC1 [Compound D43] | 0 | – | – | 0 | – | – | 0.01 to 0.1 | >13 | >1 | 1.45 ± 0.78 | Red urine (8/8) | 0.22 ± 0.07 | > 10 | 1.95 | 117 | > 10 | Adverse reactions: Hindlimb rigidity (incidence) (rats [5]): Hindlimb rigidity (2/8),; Onset time (rats [7]; [13]): 2 to 3 min; Recovery time after stopping infusion (rats [7]; [13]): 11 to 14 min; Types and incidence of adverse reactions (rats [7]; [13]): Tremor (4/6)
C=C=CC1(OC(=O)c2c(F)ncn2[C@H](C)c2ccccc2)COC1 [Compound E37] | – | 0 | – | – | 0 | – | – | >30 | >0.6 | 1.75 ± 0.26 | (8/8) | 0.25 ± 0.15 | – | 1.67 | 100 | – | ED50 (mg/kg) (rats [3]): A (A indicates that the measured ED50 is in the range of 0.01-0.10 mg/kg (including 0.01 and 0.10 mg/kg).); Sedation duration (mg/kg) (rats [5]): 3.66 ± 1.12; EC50 [1, 10]: > 10 µM; EC50 [2, 10]: > 10 µM; Onset time (rats [7]; [14]): 2 to 3 min; Recovery time after stopping infusion (rats [7]; [14]): 7 to 10 min; Types and incidence of adverse reactions (rats [7]; [14]): Tremor (2/6)
CC#CC1(OC(=O)c2cncn2[C@H](C)c2ccccc2)CCCCC1 [Compound D40] | 0 | – | – | 0 | – | – | 0.1 to 0.5 | >16 | >4 | 1.78 ± 1.94 | Red urine (8/8) | 0.73 ± 0.43 | > 1 | 7.35 | 441 | > 1 | Adverse reactions: Hindlimb rigidity (incidence) (rats [5]): Hindlimb rigidity (1/8),; Onset time (rats [7]; [13]): 2 to 3 min; Recovery time after stopping infusion (rats [7]; [13]): 10 to 15 min; Types and incidence of adverse reactions (rats [7]; [13]): Tremor (5/6)
COCC1(COC(=O)c2c(F)ncn2[C@H](C)c2ccccc2)CCC1 [Compound E2] | – | 0 | – | – | 0 | – | 0.1 to 0.5 | >25 | >5 | 2.20 ± 1.11 | (8/8) | 0.23 ± 0.07 | > 10 | 2.15 | 129 | > 10 | Onset time (rats [7]; [14]): 3 to 4 min; Recovery time after stopping infusion (rats [7]; [14]): 11 to 13 min; Types and incidence of adverse reactions (rats [7]; [14]): Tremor (2/6)
C[C@H](c1ccccc1)n1cncc1C(=O)OC1CCC1 [Compound A17] | – | – | 0 | – | – | 0 | 0.5 to 1 | >11 | >6 | 5.78 ± 2.28 | Red urine (8/8) | 0.13 ± 0.03 | > 10 | 5.45 | 327 | > 10 | Adverse reactions: Tongue stretching (incidence) (rats [5]): Tongue stretching (2/8),; Recovery time after stopping infusion (rats [7]; after 1 hour infusion at 2×MIR): 19 to 25 min; Adverse reactions: Tremor (incidence) (rats [7]): Tremor (2/6); Onset time (rats [7]; [12]): 2 to 3 min
